Experimental data taken from publication PMC10269819, “Mitochondrial ADP/ATP Carrier 1 Is Important for the Growth of Toxoplasma Tachyzoites” (Microbiology Spectrum, 2023).

Assays:
Format in all cases: cell-based
TgAAC1 [1] = molecular target: T1, TgAAC1 (Toxoplasma gondii, UniProt Q9BJ36); assay: competition with [α-32P]ATP uptake by intact induced E. coli cells; settings: unlabelled competitor 2.5 μM (100-fold excess); 25 nM [α-32P]ATP; 10 min; 50 mM potassium phosphate pH 7.0; 30 °C
T1 construct: full-length cDNA (318 residues) in pET-16b, HA-tagged; expressed in membrane of intact E. coli BL21(DE3)
T1 sequence (Q9BJ36 1-318): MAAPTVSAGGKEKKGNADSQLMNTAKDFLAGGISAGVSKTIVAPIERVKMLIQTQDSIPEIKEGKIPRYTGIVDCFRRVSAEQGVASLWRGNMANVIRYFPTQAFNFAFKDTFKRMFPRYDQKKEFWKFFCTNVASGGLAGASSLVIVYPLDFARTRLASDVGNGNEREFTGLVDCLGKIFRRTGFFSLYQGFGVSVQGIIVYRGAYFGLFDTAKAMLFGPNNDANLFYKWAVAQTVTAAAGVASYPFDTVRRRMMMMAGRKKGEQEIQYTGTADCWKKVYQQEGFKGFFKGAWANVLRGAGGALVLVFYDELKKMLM

TgAAC1 [2] = molecular target: T1, TgAAC1; assay: as above; settings: unlabelled competitor 2.5 μM (100-fold excess); 25 nM [α-32P]ATP; 10 min; 50 mM potassium phosphate pH 7.0; 30 °C; remark: listed apart in the source
TgAAC1 [3] = molecular target: T1, TgAAC1; assay: uptake of [α-32P]ATP by intact induced E. coli cells; settings: labelled compound; 25 nM [α-32P]ATP; 50 mM potassium phosphate pH 7.0; 30 °C; uninduced cells as control

## Nc1ncnc2c1ncn2[C@@H]1O[C@H](COP(=O)(O)OP(=O)(O)O)[C@@H](O)[C@H]1O [ADP]
TgAAC1 [1]
  % reduction of [α-32P]-ATP transport at 2.5 μM: ~ approximately 90%

## Nc1ncnc2c1ncn2[C@@H]1O[C@H](COP(=O)(O)O)[C@@H](O)[C@H]1O [AMP]
TgAAC1 [2]
  % reduction of [α-32P]-ATP uptake at 2.5 μM: 40%

## Nc1ncnc2c1ncn2[C@@H]1O[C@H](COP(=O)(O)OP(=O)(O)OP(=O)(O)O)[C@@H](O)[C@H]1O [ATP]
TgAAC1 [3]
  uptake of [α-32P]ATP by intact induced E. coli cells: TgAAC1 could take up more ATP after induction compared to the noninduced group
TgAAC1 [1]
  % reduction of [α-32P]-ATP transport at 2.5 μM: ~ approximately 90%

## Nc1ccn([C@@H]2O[C@H](COP(=O)(O)OP(=O)(O)OP(=O)(O)O)[C@@H](O)[C@H]2O)c(=O)n1 [CTP]
TgAAC1 [2]
  % reduction of [α-32P]-ATP uptake at 2.5 μM: 45%
